Each structure is given as a SMILES string. Where a name gives a salt, the structure may show the parent alone.

The target of this test is T1, guinea pig serum ACE (angiotensin converting enzyme) (Cavia porcellus, UniProt H0UWL7).
T1 construct: ACE from guinea pig serum; from tissue; host or cells: guinea pig serum
T1 sequence (H0UWL7 33-1302): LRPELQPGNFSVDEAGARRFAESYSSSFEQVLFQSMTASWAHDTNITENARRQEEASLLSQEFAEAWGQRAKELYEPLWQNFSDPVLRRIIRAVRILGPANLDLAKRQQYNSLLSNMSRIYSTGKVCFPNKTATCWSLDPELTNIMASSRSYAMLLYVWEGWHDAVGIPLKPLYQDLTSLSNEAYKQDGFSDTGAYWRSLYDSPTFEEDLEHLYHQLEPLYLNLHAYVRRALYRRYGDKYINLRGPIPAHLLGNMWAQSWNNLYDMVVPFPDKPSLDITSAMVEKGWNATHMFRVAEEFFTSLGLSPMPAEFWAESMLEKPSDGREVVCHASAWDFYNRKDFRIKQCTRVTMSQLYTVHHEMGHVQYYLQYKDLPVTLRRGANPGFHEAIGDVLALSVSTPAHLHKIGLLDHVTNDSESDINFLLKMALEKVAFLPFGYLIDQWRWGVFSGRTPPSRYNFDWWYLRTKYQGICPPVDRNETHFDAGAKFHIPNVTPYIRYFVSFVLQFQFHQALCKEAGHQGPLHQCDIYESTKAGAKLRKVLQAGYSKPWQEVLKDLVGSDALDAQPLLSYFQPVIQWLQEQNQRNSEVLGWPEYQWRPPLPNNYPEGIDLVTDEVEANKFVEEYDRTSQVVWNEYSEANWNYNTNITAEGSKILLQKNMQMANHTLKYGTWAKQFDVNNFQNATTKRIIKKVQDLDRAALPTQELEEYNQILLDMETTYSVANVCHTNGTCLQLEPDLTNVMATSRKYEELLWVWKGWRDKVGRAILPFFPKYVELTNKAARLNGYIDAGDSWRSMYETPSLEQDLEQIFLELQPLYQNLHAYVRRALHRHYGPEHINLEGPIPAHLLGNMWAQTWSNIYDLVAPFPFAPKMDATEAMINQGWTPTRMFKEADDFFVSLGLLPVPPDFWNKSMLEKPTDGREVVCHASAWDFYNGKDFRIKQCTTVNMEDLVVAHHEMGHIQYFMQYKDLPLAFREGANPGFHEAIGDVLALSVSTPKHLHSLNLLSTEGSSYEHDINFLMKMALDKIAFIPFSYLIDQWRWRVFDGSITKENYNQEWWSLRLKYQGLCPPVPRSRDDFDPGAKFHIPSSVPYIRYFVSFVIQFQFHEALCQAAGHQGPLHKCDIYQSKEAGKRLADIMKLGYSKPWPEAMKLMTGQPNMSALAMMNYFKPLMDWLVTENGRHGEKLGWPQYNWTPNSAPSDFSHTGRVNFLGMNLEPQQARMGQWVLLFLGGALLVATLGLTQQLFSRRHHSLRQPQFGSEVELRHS
Nature of the test: In vitro ACE assay (angiotensin converting enzyme inhibitory activity, guinea pig serum ACE, 3H-hippuryl-glycyl-glycine substrate). The test is classed as biochemical. Conditions: 10 min preincubation, 60 min incubation at 37° C., S,S,S configuration, hydrochloride salt (+) or maleate salt (#) by footnote, read-out: ACE I Activity (in vitro) IC50 Molar Conc. As to the method: In vitro ACE Assay: Angiotensin converting enzyme (ACE) inhibitory activity was determined by assaying guinea pig serum ACE in the presence and absence of the test compound. ACE from guinea pig serum and the test compounds were preincubated for 10 minutes before the addition of the labelled substrate ^3 H-hippuryl-glycyl-glycine. After a 60 minute incubation of 37° C. the reaction was stopped by the addition of 0.1 N HCl. ACE cleaves the hippuryl-glycyl bond to form the dipeptide glycyl-glycine and ^3 H-hippuric acid. The ^3 H-hippuric acid was then extracted with ethyl acetate and the ACE activity of a given sample calculated as the amount of ^3 H-hippuric acid generated.
Broadly, the IC50 is the concentration that inhibits the measured activity by half. For the compound `CCOC(=O)[C@H](CCc1ccccc1)N[C@@H](C)C(=O)N1Cc2cc(OC)c(OC)cc2C[C@H]1C(=O)O` [R=H, R2=Et, X=OCH3, Y=OCH3, 2-[2-[[1-(Ethoxycarbonyl)-3-phenylpropyl]amino]-1-oxopropyl]-1,2,3,4-tetrahydro-6,7-dimethoxy-3-isoquinolinecarboxylic Acid, Hydrochloride, Hydrate (S,S,S)], the IC50 is 0.0056 µM.
To `CCOC(=O)[C@H](CCc1ccccc1)N[C@@H](C)C(=O)N1Cc2ccccc2C[C@H]1C(=O)OCc1ccccc1` [R=PhCH2, R2=Et, X=H, Y=H, 2-[2-[[1-(Ethoxycarbonyl)-3-phenylpropyl]amino]-1-oxopropyl]-1,2,3,4-tetrahydro-3-isoquinolinecarboxylic Acid, Phenylmethyl Ester, Maleate (S,S,S)] belongs 2 µM.
With `CCOC(=O)[C@H](CCc1ccccc1)N[C@@H](C)C(=O)N1Cc2cc(OC)c(OC)cc2C[C@H]1C(=O)OCc1ccccc1` [R=PhCH2, R2=Et, X=OCH3, Y=OCH3, 2-[2-[[1-(Ethoxycarbonyl)-3-phenylpropyl]amino]-1-oxopropyl]-1,2,3,4-tetrahydro-6,7-dimethoxy-3-isoquinolinecarboxylic Acid, Phenylmethyl Ester, Maleate (S,S,S)], the IC50 is 0.3 µM.
The result for `CCOC(=O)[C@H](CCc1ccccc1)N[C@@H](C)C(=O)N1Cc2ccccc2C[C@H]1C(=O)OC(C)(C)C` [R=t-Bu, R2=Et, X=H, Y=H] reads 3.2 µM.

Source of the values: patent US4344949A, “Substituted acyl derivatives of 1,2,3,4-tetrahydroisoquinoline-3-carboxylic acids” (Warner-Lambert Company, priority 1981, dated 1982).
